Measurements taken from US8188085B2, “Antifungal agents” (Merck Sharp & Dohme Corp., priority 2008, dated 2012).

Target: glucan synthase (GS) prepared from Candida albicans MY1055 (Candida albicans, UniProt O13428)
Assay: Glucan synthase inhibition (polymerization assay, 96-well)
Assay type: biochemical
Conditions: GS from C. albicans MY1055; 60 min incubation at 22° C.; read-out: Candida Albicans GS IC50 (converted)
How it was run: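 Partially purified glucan synthase from C. albicans MY1055 membranes incorporated 0.5 mM ³H-UDPG with 25 μM GTP-γ-S, HEPES pH 7.5, over 60 min at 22 °C. TCA-precipitated glucan was counted by scintillation. IC50 (ng/mL) came from sigmoidal fits of duplicate 3-fold dilution series.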

Sequence of glucan synthase (GS) prepared from Candida albicans MY1055 (O13428 1-1897): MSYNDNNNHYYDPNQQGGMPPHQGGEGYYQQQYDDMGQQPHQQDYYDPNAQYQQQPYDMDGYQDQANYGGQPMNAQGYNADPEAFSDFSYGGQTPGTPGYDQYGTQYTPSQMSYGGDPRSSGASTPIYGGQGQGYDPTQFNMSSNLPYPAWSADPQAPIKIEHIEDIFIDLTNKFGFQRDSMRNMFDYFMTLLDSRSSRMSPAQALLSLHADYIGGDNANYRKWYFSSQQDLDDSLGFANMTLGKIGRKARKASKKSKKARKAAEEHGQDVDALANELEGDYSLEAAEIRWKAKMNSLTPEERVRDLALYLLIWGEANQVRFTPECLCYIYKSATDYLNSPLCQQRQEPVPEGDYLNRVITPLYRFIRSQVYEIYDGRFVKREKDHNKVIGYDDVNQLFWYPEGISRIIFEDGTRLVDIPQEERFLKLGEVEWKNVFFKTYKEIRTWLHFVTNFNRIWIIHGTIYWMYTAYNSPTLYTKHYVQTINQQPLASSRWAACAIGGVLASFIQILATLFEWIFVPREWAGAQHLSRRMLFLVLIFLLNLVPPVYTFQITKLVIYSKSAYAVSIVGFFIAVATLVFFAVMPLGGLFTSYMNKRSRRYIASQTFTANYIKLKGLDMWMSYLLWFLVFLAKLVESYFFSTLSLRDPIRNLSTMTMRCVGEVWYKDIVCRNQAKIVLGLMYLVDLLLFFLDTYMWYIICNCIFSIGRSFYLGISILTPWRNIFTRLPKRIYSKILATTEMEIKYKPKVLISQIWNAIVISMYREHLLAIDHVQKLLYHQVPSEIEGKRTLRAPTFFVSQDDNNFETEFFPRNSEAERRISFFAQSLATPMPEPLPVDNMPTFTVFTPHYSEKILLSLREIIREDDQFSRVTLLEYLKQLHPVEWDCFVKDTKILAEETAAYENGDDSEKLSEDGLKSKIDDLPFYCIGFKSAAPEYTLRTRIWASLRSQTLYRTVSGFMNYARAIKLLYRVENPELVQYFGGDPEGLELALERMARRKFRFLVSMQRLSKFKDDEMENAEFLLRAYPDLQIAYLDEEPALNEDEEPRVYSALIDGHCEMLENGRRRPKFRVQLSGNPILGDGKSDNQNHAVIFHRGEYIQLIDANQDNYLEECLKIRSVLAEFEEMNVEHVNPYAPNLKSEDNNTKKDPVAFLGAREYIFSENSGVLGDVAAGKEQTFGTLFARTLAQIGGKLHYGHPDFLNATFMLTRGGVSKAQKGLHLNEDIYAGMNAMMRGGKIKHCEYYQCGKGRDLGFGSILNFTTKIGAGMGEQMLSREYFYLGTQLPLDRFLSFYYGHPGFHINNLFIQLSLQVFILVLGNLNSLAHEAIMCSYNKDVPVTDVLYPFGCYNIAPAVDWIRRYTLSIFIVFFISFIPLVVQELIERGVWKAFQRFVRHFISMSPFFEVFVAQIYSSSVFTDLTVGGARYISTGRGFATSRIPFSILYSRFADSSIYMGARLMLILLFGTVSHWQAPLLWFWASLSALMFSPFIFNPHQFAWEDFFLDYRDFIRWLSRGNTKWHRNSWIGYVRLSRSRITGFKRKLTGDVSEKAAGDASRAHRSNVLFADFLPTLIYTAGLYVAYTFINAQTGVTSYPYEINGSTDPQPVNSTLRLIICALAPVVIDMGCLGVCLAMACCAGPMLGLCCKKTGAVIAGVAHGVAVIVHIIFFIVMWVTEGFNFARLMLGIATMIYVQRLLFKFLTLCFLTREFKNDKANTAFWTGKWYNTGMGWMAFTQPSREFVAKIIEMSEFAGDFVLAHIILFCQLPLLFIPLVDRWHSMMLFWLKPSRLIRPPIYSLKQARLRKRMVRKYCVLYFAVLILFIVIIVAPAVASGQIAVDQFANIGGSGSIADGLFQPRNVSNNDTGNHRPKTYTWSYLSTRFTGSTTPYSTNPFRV

IC50	Compound
5.6 nM	CC(C)[C@@H](C)[C@@]1(C)CC[C@]2(C)[C@H]3CC[C@@H]4[C@@]5(COC[C@@]4(C)[C@@H](OC[C@@]4(C)CCCN4)[C@H](n4ncnc4-c4ccncc4)C5)C3=CC[C@@]2(C)[C@@H]1C(=O)O [Example 307, (1S,4aR,6aS,7R,8R,10aR,10bR,12aR,14R,15R)-8-[(1R)-1,2-dimethylpropyl]-15-[[(2R)-2-methyl-2-pyrrolidinyl]methoxy]-14-[5-(4-pyridinyl)-1H-1,2,4-triazol-1-yl]-1,6,6a,7,8,9,10,10a,10b,11,12,12a-dodecahydro-1,6a,8,10a-tetramethyl-4H-1,4a-propano-2H-phenanthro[1,2-c]pyran-7-carboxylic acid]
8.51 nM	CC(C)[C@@H](C)[C@@]1(C)CC[C@]2(C)[C@H]3CC[C@@H]4[C@@]5(COC[C@@]4(C)[C@@H](OC[C@](C)(N)C(C)C)[C@H](n4ncnc4-c4ccoc4)C5)C3=CC[C@@]2(C)[C@@H]1C(=O)O [Example 144, (1S,4aR,6aS,7R,8R,10aR,10bR,12aR,14R,15R)-15-[[(2R)-2-amino-2,3-dimethylbutyl]oxy]-8-[(1R)-1,2-dimethylpropyl]-14-[5-(3-furanyl)-1H-1,2,4-triazol-1-yl]-1,6,6a,7,8,9,10,10a,10b,11,12,12a-dodecahydro-1,6a,8,10a-tetramethyl-4H-1,4a-propano-2H-phenanthro[1,2-c]pyran-7-carboxylic acid]
4.39 nM	CC(C)[C@@H](C)[C@@]1(C)CC[C@]2(C)[C@H]3CC[C@@H]4[C@@]5(COC[C@@]4(C)[C@@H](OC[C@](C)(N)C(C)C)[C@H](n4nccc4[N+](=O)[O-])C5)C3=CC[C@@]2(C)[C@@H]1C(=O)O (single isomer, unassigned) [Example 293B]
46.6 nM	CC(C)[C@@H](C)[C@@]1(C)CC[C@]2(C)[C@H]3CC[C@@H]4[C@@]5(COC[C@@]4(C)[C@@H](OC[C@](C)(N)C(C)C)[C@H](n4nc(Cl)nc4Cl)C5)C3=CC[C@@]2(C)[C@@H]1C(=O)O [Example 34, (1S,4aR,6aS,7R,8R,10aR,10bR,12aR,14R,15R)-15-[[(2R)-2-amino-2,3-dimethylbutyl]oxy]-14-(3,5-dichloro-1H-1,2,4-triazol-1-yl)-8-[(1R)-1,2-dimethylpropyl]-1,6,6a,7,8,9,10,10a,10b,11,12,12a-dodecahydro-1,6a,8,10a-tetramethyl-4H-1,4a-propano-2H-phenanthro[1,2-c]pyran-7-carboxylic acid]
5.74 nM	COC(=O)c1ncn([C@@H]2C[C@@]34COC[C@](C)([C@@H]3CC[C@H]3C4=CC[C@@]4(C)[C@H](C(=O)O)[C@@](C)([C@H](C)C(C)C)CC[C@]34C)[C@H]2OC[C@](C)(N)C(C)C)n1 (single isomer, unassigned) [Example 8A]
675 nM	CCOC(=O)c1nccn1[C@@H]1C[C@@]23COC[C@](C)([C@@H]2CC[C@H]2C3=CC[C@@]3(C)[C@H](C(=O)O)[C@@](C)([C@H](C)C(C)C)CC[C@]23C)[C@H]1OC[C@](C)(N)C(C)C [Example 300, (1S,4aR,6aS,7R,8R,10aR,10bR,12aR,14R,15R)-15-[[(2R)-2-amino-2,3-dimethylbutyl]oxy]-8-[(1R)-1,2-dimethylpropyl]-14-[2-(ethoxycarbonyl)-1H-imidazol-1-yl]-1,6,6a,7,8,9,10,10a,10b,11,12,12a-dodecahydro-1,6a,8,10a-tetramethyl-4H-1,4a-propano-2H-phenanthro[1,2-c]pyran-7-carboxylic acid]
47.4 nM	CC(C)[C@@H](C)[C@@]1(C)CC[C@]2(C)[C@H]3CC[C@@H]4[C@@]5(COC[C@@]4(C)[C@@H](OC[C@](C)(N)C(C)C)[C@H](n4cnc(Br)n4)C5)C3=CC[C@@]2(C)[C@@H]1C(=O)O [Example 6C, (1S,4aR,6aS,7R,8R,10aR,10bR,12aR,14R,15R)-15-[[(2R)-2-amino-2,3-dimethylbutyl]oxy]-14-(3-bromo-1H-1,2,4-triazol-1-yl)-8-[(1R)-1,2-dimethylpropyl]-1,6,6a,7,8,9,10,10a,10b,11,12,12a-dodecahydro-1,6a,8,10a-tetramethyl-4H-1,4a-propano-2H-phenanthro[1,2-c]pyran-7-carboxylic acid]
26 nM	CN[C@](C)(CO[C@H]1[C@H](n2cncn2)C[C@@]23COC[C@]1(C)[C@@H]2CC[C@H]1C3=CC[C@@]2(C)[C@H](C(=O)O)[C@@](C)([C@H](C)C(C)C)CC[C@]12C)C(C)C [Example 3, (1S,4aR,6aS,7R,8R,10aR,10bR,12aR,14R,15R)-15-[[(2S)-2,3-dimethyl-2-(methylamino)butyl]oxy]-8-[(1R)-1,2-dimethylpropyl]-14-(1H-1,2,4-triazol-1-yl)-1,6,6a,7,8,9,10,10a,10b,11,12,12a-dodecahydro-1,6a,8,10a-tetramethyl-4H-1,4a-propano-2H-phenanthro[1,2-c]pyran-7-carboxylic acid]
6.47 nM	CC(C)[C@@H](C)[C@@]1(C)CC[C@]2(C)[C@H]3CC[C@@H]4[C@@]5(COC[C@@]4(C)[C@@H](OC[C@](C)(N)C(C)(C)C)[C@H](n4ncnc4-c4ccc(C(=O)O)cc4)C5)C3=CC[C@@]2(C)[C@@H]1C(=O)O [Example 235, (1S,4aR,6aS,7R,8R,10aR,10bR,12aR,14R,15R)-15-[[(2R)-2-amino-2,3,3-trimethylbutyl]oxy]-14-[5-(4-carboxyphenyl)-1H-1,2,4-triazol-1-yl]-8-[(1R)-1,2-dimethylpropyl]-1,6,6a,7,8,9,10,10a,10b,11,12,12a-dodecahydro-1,6a,8,10a-tetramethyl-4H-1,4a-propano-2H-phenanthro[1,2-c]pyran-7-carboxylic acid]

Compound	IC50
CC(C)[C@@H](C)[C@@]1(C)CC[C@]2(C)[C@H]3CC[C@@H]4[C@@]5(COC[C@@]4(C)[C@@H](OCC(C)(C(C)C)N(C)C)[C@H](n4cnc(Cl)n4)C5)C3=CC(=O)[C@@]2(C)[C@@H]1C(=O)O (stereo partly drawn) [Example 9C, (1S,4aR,6aS,7R,8R,10aR,10bR,12aR,14R,15R)-14-(3-chloro-1H-1,2,4-triazol-1-yl)-15-[2-(dimethylamino)-2,3-dimethylbutoxy]-8-[(1R)-1,2-dimethylpropyl]-1,6,6a,7,8,9,10,10a,10b,11,12,12a-dodecahydro-1,6a,8,10a-tetramethyl-6-oxo-4H-1,4a-propano-2H-phenanthro[1,2-c]pyran-7-carboxylic acid]	74.1 nM
CCC(N)(CC)CO[C@H]1[C@H](n2ncnc2-c2ccncc2)C[C@@]23COC[C@]1(C)[C@@H]2CC[C@H]1C3=CC[C@@]2(C)[C@H](C(=O)O)[C@@](C)([C@H](C)C(C)C)CC[C@]12C [Example 241, (1S,4aR,6aS,7R,8R,10aR,10bR,12aR,14R,15R)-15-(2-amino-2-ethylbutoxy)-8-[(1R)-1,2-dimethylpropyl]-14-[5-(4-pyridinyl)-1H-1,2,4-triazol-1-yl]-1,6,6a,7,8,9,10,10a,10b,11,12,12a-dodecahydro-1,6a,8,10a-tetramethyl-4H-1,4a-propano-2H-phenanthro[1,2-c]pyran-7-carboxylic acid]	1.4 nM
